How the values were obtained:
Experiment in all cases: GC-MS of terpene products after phosphatase treatment
Type in all cases: biochemical
AlTPS2 = target: T1, AlTPS2 (Wurfbainia longiligularis, UniProt A0A7L7T499); conditions: 30 C, 1 h; then alkaline phosphatase 37 C
T1 construct: gene TPS2; full ORF 587 residues; predicted 34-residue N-terminal plastid transit peptide removed; MBP fusion (pMAL-c5X), E. coli Rosetta (DE3), about 108 kDa, tag kept
T1 sequence (A0A7L7T499 35-587): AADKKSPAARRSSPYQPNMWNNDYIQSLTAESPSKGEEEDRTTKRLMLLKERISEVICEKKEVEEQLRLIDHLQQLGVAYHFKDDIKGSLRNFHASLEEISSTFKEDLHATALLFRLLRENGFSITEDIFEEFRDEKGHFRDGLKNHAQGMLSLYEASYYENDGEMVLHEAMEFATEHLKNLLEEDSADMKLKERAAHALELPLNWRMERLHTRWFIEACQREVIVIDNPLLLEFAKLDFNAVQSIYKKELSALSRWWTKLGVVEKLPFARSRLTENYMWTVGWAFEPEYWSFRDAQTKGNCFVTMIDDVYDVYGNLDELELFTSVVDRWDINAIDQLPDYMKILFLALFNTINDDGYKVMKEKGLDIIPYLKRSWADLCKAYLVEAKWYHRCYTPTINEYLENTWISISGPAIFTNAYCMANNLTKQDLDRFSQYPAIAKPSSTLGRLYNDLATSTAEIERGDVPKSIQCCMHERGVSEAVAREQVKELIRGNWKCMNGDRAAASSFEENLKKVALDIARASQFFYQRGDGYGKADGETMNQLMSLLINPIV

AlTPS3 [1] = target: T2, AlTPS3 (Wurfbainia longiligularis, UniProt A0A7L7T473, A496G); conditions: overnight incubation with GPP; conserved DTE motif
T2 construct: gene TPS3; ORF 1791 bp, printed as 597 residues; predicted 47-residue N-terminal plastid transit peptide removed

AvBPPS = target: T3, AvBPPS (Wurfbainia villosa, UniProt A0A2Z4K4Q8); conditions: 30 C, 1 h; then alkaline phosphatase 37 C
T3 construct: gene TPS3; full length 596 residues; recombinant, cloned in the authors' earlier work (Wang et al. 2018); truncation and tag not restated here

AlTPS3 [2] = target: T4, AlTPS3 (Wurfbainia longiligularis, UniProt A0A7L7T473); conditions: 30 C, 1 h; then alkaline phosphatase 37 C
T4 construct: gene TPS3; ORF 1791 bp, printed as 597 residues; predicted 47-residue N-terminal plastid transit peptide removed
T4 sequence (A0A7L7T473 48-597): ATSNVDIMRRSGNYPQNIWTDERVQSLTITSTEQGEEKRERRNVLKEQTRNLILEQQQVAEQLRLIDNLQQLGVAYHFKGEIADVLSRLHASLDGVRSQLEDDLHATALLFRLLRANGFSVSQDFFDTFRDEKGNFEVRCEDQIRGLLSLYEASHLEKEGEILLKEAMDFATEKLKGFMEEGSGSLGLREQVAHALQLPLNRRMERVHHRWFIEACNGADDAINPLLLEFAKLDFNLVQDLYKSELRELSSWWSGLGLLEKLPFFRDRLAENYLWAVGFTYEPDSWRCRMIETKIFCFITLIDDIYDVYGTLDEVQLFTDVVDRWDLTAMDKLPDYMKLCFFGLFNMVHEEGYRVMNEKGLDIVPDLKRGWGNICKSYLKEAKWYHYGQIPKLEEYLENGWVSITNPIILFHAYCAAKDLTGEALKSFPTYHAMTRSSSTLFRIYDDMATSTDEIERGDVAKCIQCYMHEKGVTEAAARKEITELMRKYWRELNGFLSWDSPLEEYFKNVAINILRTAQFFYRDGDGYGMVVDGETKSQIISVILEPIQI

AvTPS2 = target: T5, AvTPS2 (Wurfbainia villosa, UniProt A0A7L7TAQ2); conditions: 30 C, 1 h; then alkaline phosphatase 37 C
T5 construct: gene TPS2; full ORF 587 residues; predicted 34-residue N-terminal plastid transit peptide removed
T5 sequence (A0A7L7TAQ2 35-587): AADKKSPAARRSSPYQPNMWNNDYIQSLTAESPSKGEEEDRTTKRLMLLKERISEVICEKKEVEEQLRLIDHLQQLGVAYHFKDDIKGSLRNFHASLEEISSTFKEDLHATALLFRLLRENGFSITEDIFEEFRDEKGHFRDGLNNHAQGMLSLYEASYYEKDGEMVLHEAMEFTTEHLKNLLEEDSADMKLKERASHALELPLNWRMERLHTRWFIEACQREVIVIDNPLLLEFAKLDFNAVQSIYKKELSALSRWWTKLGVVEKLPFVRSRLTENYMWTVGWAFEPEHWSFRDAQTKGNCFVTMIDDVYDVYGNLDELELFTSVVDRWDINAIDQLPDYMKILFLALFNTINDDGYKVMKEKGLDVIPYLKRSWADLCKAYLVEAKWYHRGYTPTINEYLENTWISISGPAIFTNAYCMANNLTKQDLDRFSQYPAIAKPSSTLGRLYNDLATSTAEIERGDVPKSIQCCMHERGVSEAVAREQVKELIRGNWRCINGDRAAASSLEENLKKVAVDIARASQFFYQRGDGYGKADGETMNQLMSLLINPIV

T3 sequence (A0A2Z4K4Q8 entry or part of it): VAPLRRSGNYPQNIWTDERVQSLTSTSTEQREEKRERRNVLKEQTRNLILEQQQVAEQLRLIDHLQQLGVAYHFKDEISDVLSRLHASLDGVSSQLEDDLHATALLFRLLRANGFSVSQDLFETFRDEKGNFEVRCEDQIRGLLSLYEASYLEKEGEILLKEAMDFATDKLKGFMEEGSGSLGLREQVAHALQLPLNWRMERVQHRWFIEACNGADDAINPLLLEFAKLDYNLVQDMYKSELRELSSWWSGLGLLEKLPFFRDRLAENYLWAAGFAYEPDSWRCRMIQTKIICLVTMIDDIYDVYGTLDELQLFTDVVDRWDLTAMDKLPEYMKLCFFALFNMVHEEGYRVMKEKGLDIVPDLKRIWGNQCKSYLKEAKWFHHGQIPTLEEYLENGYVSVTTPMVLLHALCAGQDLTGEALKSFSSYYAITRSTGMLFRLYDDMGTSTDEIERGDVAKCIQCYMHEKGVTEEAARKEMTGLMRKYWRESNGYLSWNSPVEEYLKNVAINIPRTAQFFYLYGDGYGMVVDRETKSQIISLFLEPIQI
T2 sequence (A0A7L7T473 entry or part of it A496G): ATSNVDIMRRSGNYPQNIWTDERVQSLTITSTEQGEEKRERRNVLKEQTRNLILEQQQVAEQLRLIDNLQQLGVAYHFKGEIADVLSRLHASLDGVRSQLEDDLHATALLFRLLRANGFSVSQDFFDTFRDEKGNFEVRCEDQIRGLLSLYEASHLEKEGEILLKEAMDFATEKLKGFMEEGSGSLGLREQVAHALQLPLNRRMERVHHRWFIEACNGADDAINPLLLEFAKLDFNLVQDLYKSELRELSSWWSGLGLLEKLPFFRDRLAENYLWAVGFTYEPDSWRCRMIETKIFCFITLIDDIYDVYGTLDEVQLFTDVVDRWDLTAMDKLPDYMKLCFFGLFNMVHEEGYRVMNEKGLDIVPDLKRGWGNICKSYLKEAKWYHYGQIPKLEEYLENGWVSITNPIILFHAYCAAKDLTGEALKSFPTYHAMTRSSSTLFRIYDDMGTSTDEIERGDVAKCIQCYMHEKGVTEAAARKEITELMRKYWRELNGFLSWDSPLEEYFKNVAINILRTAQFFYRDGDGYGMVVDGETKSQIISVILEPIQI

**Q.** How did the “GC-MS of terpene products after phosphatase treatment” value (shortened to “GC-MS of terpene products”) (AlTPS2) turn out when `CC(C)=CCC/C(C)=C/COP(=O)(O)OP(=O)(O)O` [GPP] was run?
**A.** When the substrate was GPP, AlTPS2, and AvTPS2 produced the monoterpene product linalool

**Q.** What about the “GC-MS of terpene products” value (AlTPS3 [1]) of the same compound?
**A.** the site-directed mutant of AlTPS3-A496G and AvBPPS-G495A were constructed, and the overnight reaction with GPP

**Q.** And the “GC-MS of terpene products” value (AvBPPS)?
**A.** reaction products generated by recombinant protein AlTPS3 and AvBPPS from GPP

**Q.** And the “GC-MS of terpene products” value (AlTPS3 [2])?
**A.** AlTPS3 recombinant protein catalyzed GPP to produce camphene as the major product

**Q.** And the “GC-MS of terpene products” value (AvTPS2)?
**A.** When the substrate was GPP, AlTPS2, and AvTPS2 produced the monoterpene product linalool

From article PMC8406774, “A Comparison of Two Monoterpenoid Synthases Reveals Molecular Mechanisms Associated With the Difference of Bioactive Monoterpenoids Between Amomum villosum and Amomum longiligulare” (Frontiers in Plant Science, 2021)
